In patent US9469650B2, “Melampomagnolide B derivatives” (BOARD OF TRUSTEES OF THE UNIVERSITY OF ARKANSAS, priority 2013, dated 2016):

What was measured:
HOP-92 = experiment: panel of 60 human tumor cell lines, growth inhibition (Non-Small Cell Lung Cancer); conditions: HOP-92
NCI-H322M = experiment: as above
HOP-62 = experiment: as above; conditions: HOP-62
SF-539 = experiment: panel of 60 human tumor cell lines, growth inhibition (CNS Cancer); conditions: SF-539
PC-3 = experiment: panel of 60 human tumor cell lines, growth inhibition (Prostate Cancer); conditions: PC-3
K-562 = experiment: panel of 60 human tumor cell lines, growth inhibition (Leukemia); conditions: K-562
SF-295 = experiment: panel of 60 human tumor cell lines, growth inhibition (CNS Cancer); conditions: SF-295
U251 = experiment: as above; conditions: U251
SW-620 = experiment: panel of 60 human tumor cell lines, growth inhibition (Colon Cancer); conditions: SW-620

C=C1C(=O)O[C@H]2[C@H]1CC/C(COC(=O)N1CCN(C)CC1)=C\CC[C@@]1(C)O[C@@H]21 [JVM 2-44]
GI50 (HOP-92): 2.95 µM | TGI (HOP-92): 1.48E−5 | Mean Optical Densities (HOP-92; Log10 Concentration −4.0): 0.116 | Percent Growth (HOP-92; Log10 Concentration −4.0): −87% | Mean Optical Densities (HOP-92; Log10 Concentration −5.0): 0.995 | Percent Growth (HOP-92; Log10 Concentration −5.0): 18% | Mean Optical Densities (HOP-92; Log10 Concentration −6.0): 1.307 | Percent Growth (HOP-92; Log10 Concentration −6.0): 79% | Mean Optical Densities (HOP-92; Log10 Concentration −7.0): 1.345 | Percent Growth (HOP-92; Log10 Concentration −7.0): 86% | Mean Optical Densities (HOP-92; Log10 Concentration −8.0): 1.394 | Percent Growth (HOP-92; Log10 Concentration −8.0): 95% | GI50 (NCI-H322M): 16.2 µM | TGI (NCI-H322M): 5.44E−5 | Mean Optical Densities (NCI-H322M; Log10 Concentration −4.0): 0.569 | Percent Growth (NCI-H322M; Log10 Concentration −4.0): −25% | Mean Optical Densities (NCI-H322M; Log10 Concentration −5.0): 1.434 | Percent Growth (NCI-H322M; Log10 Concentration −5.0): 70% | Mean Optical Densities (NCI-H322M; Log10 Concentration −6.0): 1.650 | Percent Growth (NCI-H322M; Log10 Concentration −6.0): 93% | Mean Optical Densities (NCI-H322M; Log10 Concentration −7.0): 1.624 | Percent Growth (NCI-H322M; Log10 Concentration −7.0): 91% | Mean Optical Densities (NCI-H322M; Log10 Concentration −8.0): 1.649 | Percent Growth (NCI-H322M; Log10 Concentration −8.0): 93% | GI50 (HOP-62): 27.3 µM | TGI (HOP-62): >1.00E−4 | Mean Optical Densities (HOP-62; Log10 Concentration −4.0): 0.936 | Percent Growth (HOP-62; Log10 Concentration −4.0): 7% | Mean Optical Densities (HOP-62; Log10 Concentration −5.0): 2.007 | Percent Growth (HOP-62; Log10 Concentration −5.0): 83% | Mean Optical Densities (HOP-62; Log10 Concentration −6.0): 2.174 | Percent Growth (HOP-62; Log10 Concentration −6.0): 95% | Mean Optical Densities (HOP-62; Log10 Concentration −7.0): 2.046 | Percent Growth (HOP-62; Log10 Concentration −7.0): 86% | Mean Optical Densities (HOP-62; Log10 Concentration −8.0): 2.193 | Percent Growth (HOP-62; Log10 Concentration −8.0): 96% | GI50 (SF-539): 5.01 µM | TGI (SF-539): 1.99E−5 | Mean Optical Densities (SF-539; Log10 Concentration −4.0): 0.121 | Percent Growth (SF-539; Log10 Concentration −4.0): −79% | Mean Optical Densities (SF-539; Log10 Concentration −5.0): 1.049 | Percent Growth (SF-539; Log10 Concentration −5.0): 34% | Mean Optical Densities (SF-539; Log10 Concentration −6.0): 1.761 | Percent Growth (SF-539; Log10 Concentration −6.0): 87% | Mean Optical Densities (SF-539; Log10 Concentration −7.0): 1.799 | Percent Growth (SF-539; Log10 Concentration −7.0): 89% | Mean Optical Densities (SF-539; Log10 Concentration −8.0): 1.915 | Percent Growth (SF-539; Log10 Concentration −8.0): 97% | GI50 (PC-3): 21.8 µM | TGI (PC-3): 4.89E−5 | Mean Optical Densities (PC-3; Log10 Concentration −4.0): 0.340 | Percent Growth (PC-3; Log10 Concentration −4.0): −44% | Mean Optical Densities (PC-3; Log10 Concentration −5.0): 1.854 | Percent Growth (PC-3; Log10 Concentration −5.0): 98% | Mean Optical Densities (PC-3; Log10 Concentration −6.0): 1.917 | Percent Growth (PC-3; Log10 Concentration −6.0): 103% | Mean Optical Densities (PC-3; Log10 Concentration −7.0): 1.899 | Percent Growth (PC-3; Log10 Concentration −7.0): 102% | Mean Optical Densities (PC-3; Log10 Concentration −8.0): 1.916 | Percent Growth (PC-3; Log10 Concentration −8.0): 103% | GI50 (K-562): 4.25 µM | TGI (K-562): 2.82E−5 | Mean Optical Densities (K-562; Log10 Concentration −4.0): 0.152 | Percent Growth (K-562; Log10 Concentration −4.0): −25% | Mean Optical Densities (K-562; Log10 Concentration −5.0): 0.394 | Percent Growth (K-562; Log10 Concentration −5.0): 21% | Mean Optical Densities (K-562; Log10 Concentration −6.0): 1.109 | Percent Growth (K-562; Log10 Concentration −6.0): 99% | Mean Optical Densities (K-562; Log10 Concentration −7.0): 1.030 | Percent Growth (K-562; Log10 Concentration −7.0): 91% | Mean Optical Densities (K-562; Log10 Concentration −8.0): 1.141 | Percent Growth (K-562; Log10 Concentration −8.0): 103% | GI50 (SF-295): 70.7 µM | TGI (SF-295): >1.00E−4 | Mean Optical Densities (SF-295; Log10 Concentration −4.0): 1.767 | Percent Growth (SF-295; Log10 Concentration −4.0): 43% | Mean Optical Densities (SF-295; Log10 Concentration −5.0): 2.724 | Percent Growth (SF-295; Log10 Concentration −5.0): 87% | Mean Optical Densities (SF-295; Log10 Concentration −6.0): 2.913 | Percent Growth (SF-295; Log10 Concentration −6.0): 96% | Mean Optical Densities (SF-295; Log10 Concentration −7.0): 2.707 | Percent Growth (SF-295; Log10 Concentration −7.0): 87% | Mean Optical Densities (SF-295; Log10 Concentration −8.0): 2.920 | Percent Growth (SF-295; Log10 Concentration −8.0): 96% | GI50 (U251): 18.7 µM | TGI (U251): 4.08E−5 | Mean Optical Densities (U251; Log10 Concentration −4.0): 0.206 | Percent Growth (U251; Log10 Concentration −4.0): −58% | Mean Optical Densities (U251; Log10 Concentration −5.0): 1.893 | Percent Growth (U251; Log10 Concentration −5.0): 90% | Mean Optical Densities (U251; Log10 Concentration −6.0): 2.002 | Percent Growth (U251; Log10 Concentration −6.0): 97% | Mean Optical Densities (U251; Log10 Concentration −7.0): 2.003 | Percent Growth (U251; Log10 Concentration −7.0): 97% | Mean Optical Densities (U251; Log10 Concentration −8.0): 2.013 | Percent Growth (U251; Log10 Concentration −8.0): 98% | GI50 (SW-620): 3.67 µM | TGI (SW-620): 1.49E−5 | Mean Optical Densities (SW-620; Log10 Concentration −4.0): 0.080 | Percent Growth (SW-620; Log10 Concentration −4.0): −78% | Mean Optical Densities (SW-620; Log10 Concentration −5.0): 0.753 | Percent Growth (SW-620; Log10 Concentration −5.0): 16% | Mean Optical Densities (SW-620; Log10 Concentration −6.0): 2.599 | Percent Growth (SW-620; Log10 Concentration −6.0): 94% | Mean Optical Densities (SW-620; Log10 Concentration −7.0): 2.683 | Percent Growth (SW-620; Log10 Concentration −7.0): 97% | Mean Optical Densities (SW-620; Log10 Concentration −8.0): 2.698
